Experimental data taken from patent US20180305408A1, “COMPOUNDS FOR INDUCING TISSUE FORMATION AND USES THEREOF” (HISTIDE AG, priority 2015, published 2018).
No end group written: not given here.

Experiments:
Hair Follicle Stem Cells = assay: Activation of hair follicle stem cells (Sox2 expression, BMP-6 release); format: cell-based, Mouse
From the text: The following starting materials and reagents were used: • Apatite ceramics (also called apatite or ceramic in the present invention) were synthetized as described in Mater Res. 2004; 7(4): 625-630. • Titanium was obtained from Goodfellow®. • Hydrogel (poly(acrylamide-co-acrylic acid) gel) was synthetized as described in Langmuir 2011; 27(22):13635-42. • PEEK was obtained from Goodfellow®. • PET (Poly(ethylene terephthtalate) was obtained from Goodfellow@. • Type-I collagen sponge was obtained from Sigma®. • Hexane was obtained from Sigma®. • 3-succinimidyl-3-maleimidopropionate (SMP) was obtained from Sigma®. • DMF was obtained from Sigma®. • PBS 1× was obtained from Gibco®. • 3-(ethoxydimethylsilyl)propylamine was obtained from Sigma®. • Ammonium persulfate was obtained from Biorad®. • N,N,N′,N′-tetramethylethylenediamine was obtained from Aldrich®. • Acrylamid was obtained from Merck®. • Acrylic acid was obtained from Merck®. • N,N-methylene-bis-acrylamide was obtained from Merck®. • NaOH was obtained from Aldrich®. • N,N,N′,N′-tetramethylethylenediamine was obtained from Aldrich®. • Dimethylaminopropyl-3-ethylcarbodiimide hydrochloride was obtained from Aldrich®. • N-hydroxysuccinimide was obtained from Aldrich®. • 2-(N-morpholino)-ethane sulfonic acid was obtained from Aldrich®. • MilliQ water: is water characterised in terms of resistivity (typically 18.2 MΩ·cm at 25° C.). • Low glucose Dulbecco's Modified Eagle Medium (DMEM) was obtained from Invitrogen® • Minimum Essential Medium Eagle without ascorbic acid (αMEM) was obtained from Invitrogen®. • All of the cell culture experiments were carried out without any serum in the medium for the first 8 hours of culture. • Osteoblast progenitors or precursor osteoblasts: MC3T3-E1 cells were obtained from ATCC®. These cells were cultured in Alpha-MEM medium supplemented with 10% fetal calf serum (FCS) and 1% penicillin/streptomycin. All cells were used at a low passage number (passage 7), were subconfluently cultured and were seeded at 10^4 cells/cm^2 for the purpose of the experiments. • Human bone marrow Mesenchymal Stem Cells (hMSCs) were obtained from Lonza®. These cells were cultured in Alpha-MEM supplemented with 10% (v/v) FBS and 1% penicillin/streptomycin and incubated in a humidified atmosphere containing 5% (v/v) CO2 at 37° C. All cells were used at a low passage number (passage 2 to 4), were subconfluently cultured and were seeded at 10^4 cells/cm^2 for the purpose of the experiments. • Human adipose Mesenchymal Stem Cells (haMSCs) were obtained from Lonza®. These cells were cultured in Alpha-MEM supplemented with 10% (v/v) FBS and 1% penicillin/streptomycin and incubated in a humidified atmosphere containing 5% (v/v) CO2 at 37° C. […]

hMSCs [1] = assay: Cartilage regeneration: chondrocyte differentiation of hMSCs (Sox9, Aggrecan); format: cell-based, Human; conditions: after 96 hours of culture
Procedure: (§1) Total RNA was extracted by using the RNeasy total RNA kit (Qiagen®) according to the manufacturer's instructions. Purified total RNA was used as a template in order to make cDNA by a reverse transcription reaction (Gibco Brl®) with random primers (Invitrogen®). The cDNA was then used as a template for a real-time PCR amplification in the presence of SYBR green reagents (Bio-Rad®) by using a thermocycler (iCycler, Biorad®). Data were analyzed with the iCycler IQ™® software and compared by the ΔΔCt method. […]
Total RNA was extracted by using the RNeasy Mini Kit (Qiagen) and […] RNA was used for cDNA synthesis with AMV kit (Invitrogen®) according to the manufacturer′ instructions. Semi-quantitative reverse transcriptase-polymerase chain reaction (RT-PCR) was performed with Taq DNA Polymerase (Invitrogen®) in a thermocycler (Bio-Rad®). […] The PCR products were analyzed on 2% agarose gels. For the Aggrecan gene, the PCR bands were densitometrically quantified by using the BioCapt software (Vilber). […]
It was then verified that these hMSCs cultured with and without GFR-binding compounds as defined herein were differentiated into chondrocyte cells by analyzing the expression of the chondrocyte gene biomarker: Aggrecan. […] For that a semi-quantitative RT-PCR was performed as described in the Methods section for the Aggrecan gene and a Quantitative Real Time PCR for Sox9.

[2] = system: Human umbilical-vein endothelial cells; assay: Angiogenesis: tube-like structure formation by HUVECs; format: cell-based; conditions: after 18 hours of culture
Procedure: Human umbilical-vein endothelial cells were cultured with and without vascular peptides (SEQ ID NO: 27).

[3] = Stability of non-covalent coating of fluorescent peptides on apatite ceramics or type-I collagen sponge; format: physicochemical; conditions: FITC-bound peptide on apatite ceramics or type-I collagen sponge; after 3, 7 or 10 days
Procedure: Non-covalent modifications of the materials were performed in Air Atmosphere at room temperature. The non-covalent coating strategy consisted in using a mixture of compound of the invention (SEQ ID NO: 9; concentration of 1×10^−3M) with an apatite ceramics implant or a mixture of compound of the invention (SEQ ID NO: 10; concentration of 1×10^−3M) with a type-I collagen sponge. The non-covalently coated conventional materials were characterized by using fluorescent peptides (Here SEQ ID NO: 9 and 10 covalently bound to fluorescein isothiocyanate (FITC), FIG. 3). The results shown here in FIG. 3 were obtained from experiments performed with apatite ceramics and a type-I collagen sponge. […] Indeed, after 3, 7 or 10 days, the osteogenic peptides were still coupled to the ceramics or the type-I collagen (FIG. 4). The biomaterial surface was characterized by X-ray photoelectron spectroscopy (Table 1). The X-ray photoelectron spectroscopy was performed as described in the Methods section.

[4] = system: Human umbilical-vein endothelial cells; assay: Endothelialization: area of adherent junctions (CD31) in HUVECs; format: cell-based; conditions: after 36 hours of culture
Procedure: Human umbilical-vein endothelial cells were cultured with and without endothelialization GFR-binding compounds as defined herein (SEQ ID NO: 26). An increase in the area of the adherent junctions (CD31) was observed after 36 hours of culture with GFR-binding compounds as defined herein (FIG. 10).

Neurons = assay: Neuron growth (dendrite growth, GAP43 Q-PCR); format: cell-based
From the text: […]

osteoblast progenitors = assay: Osteogenic differentiation of osteoblast progenitors on coated materials (Osteopontin staining, Runx2 Q-PCR); format: cell-based; conditions: 48 hours on coated apatite ceramics or type-I collagen sponge vs native materials
Procedure: The cells were first fixed for 20 min with 4% paraformaldehyde/PBS at 4° C. After fixation, the cells were permeabilized in PBS containing 1% Triton X-100 for 15 min. Runx2, Osterix, Stro-1, Vinculin, Phalloidin, Osteopontin, Sox2, Sox9 antibodies were visualized by treating the cells with 1% (v/v) specific monoclonal antibodies for 1 hour at 37° C. Then the samples were incubated with Alexa Fluor® 568 or 647 (F(ab′)2 fragment of IgG(H+L)) during 30 min at room temperature. The cell nuclei were counterstained in 20 ng/mL DAPI for 10 min at room temperature.
as §1, with “The cDNA was then used as a template for a real-time PCR amplification in the presence of SYBR green reagents (Bio-Rad®) by using a thermocycler (iCycler, Biorad®).” left out
The effect of the GFR-binding compounds as defined herein (SEQ ID NO: 19 and 20) on the differentiation of osteoblast progenitors was evaluated. […]
Finally, it was verified that the osteoblast progenitors were differentiated into mature osteoblasts by analyzing the expression of the osteogenic biomarker Runx2. An increase in the Runx2 gene expression after 24 hours of culture (FIG. 8a) was observed by using Quantitative Real Time Polymerase Chain Reaction as described in the Methods section.

hMSCs [5] = assay: ALP activity of hMSCs on type-I collagen sponge coupled with compound; format: cell-based, Human; conditions: after 1 week of culture on type-I collagen sponge
From the text: Finally, it was verified that the hMSCs were differentiated into mature osteoblasts by analyzing the activity of the osteogenic biomarker ALP (Alkaline Phosphatase Activity). We observed an increase in the ALP activity after 1 week of culture on type-I collagen sponge coupled with GFR-binding compounds as defined herein (SEQ ID NO: 19) (FIG. 8b).

SEQ ID NO: 29: GFR-binding compound tested on hair follicle stem cells; sequence not in this part (DENKNSSLSILFFDENKNVVLKVYP; also: cyclic, ring type not given here)
BMP-6 release in the cell culture medium (Hair Follicle Stem Cells): decrease | Sox2 protein expression (Hair Follicle Stem Cells): increase

SEQ ID NO: 24: GFR-binding compound inducing cartilage regeneration; sequence not in this part (EPLPIVYYVGRTPKVEQLSNGG; also: cyclic, ring type not given here)
expression of the Sox9 protein (hMSCs [1]): expression of the Sox9 protein was observed

SEQ ID NO: 27: vascular peptide; sequence not in this part (SNITMQIMRIKPHQGQHIGEMSGG; also: cyclic, ring type not given here)
formation of tube-like structures [2]: formation of tube-like structures was observed

SEQ ID NO: 23: GFR-binding compound inducing cartilage regeneration; sequence not in this part (ELEPLPIVYYVGRKPKVEQLSNGG; also: cyclic, ring type not given here)
expression of the Sox9 protein (hMSCs [1]): expression of the Sox9 protein was observed

SEQ ID NO: 10: compound of the invention non-covalently coated on type-I collagen sponge; tested bound to FITC; sequence not in this part (GTPGPSAISTLYLIGKTPKILKNYQ; also: cyclic, ring type not given here, bound to FITC, place not given here)
release of peptides from the coated material over time [3]: no significant release

SEQ ID NO: 26: endothelialization GFR-binding compound; sequence not in this part (RSVKVAKVRIKPHQGQHKEVQVGG; also: cyclic, ring type not given here)
area of the adherent junctions (CD31) [4]: increase

SEQ ID NO: 38: neurogenic peptide; sequence not in this part (SPISILYIDAANNVVYKQYEDAAN; also: cyclic, ring type not given here)
establishment of cell-cell contacts via dendrite growth (Neurons; after 6 hours of culture): rapid establishment of cell-cell contacts | GAP43 gene expression (Neurons; after 48 hours of culture, Q-PCR): high level of expression

SEQ ID NO: 20: GFR-binding compound, osteogenic, coated on apatite ceramics or collagen sponge; sequence not in this part (GTPGPSAISTLYLGGGGLKNYQ; also: cyclic, ring type not given here)
production of extracellular matrix proteins such as Osteopontin (OPN) (osteoblast progenitors): extensive amounts

SEQ ID NO: 30: GFR-binding compound tested on hair follicle stem cells; sequence not in this part (DENEKSSLSILFFDENEKVVLKVYP; also: cyclic, ring type not given here)
BMP-6 release in the cell culture medium (Hair Follicle Stem Cells): decrease | Sox2 protein expression (Hair Follicle Stem Cells): increase

SEQ ID NO: 9: compound of the invention non-covalently coated on apatite ceramics; tested bound to FITC; sequence not in this part (WWFWGSAISTLYLIGKTPKILKNYQ; also: FITC label, site not given here, cyclic, ring not given here)
release of peptides from the coated material over time [3]: no significant release

SEQ ID NO: 19: GFR-binding compound, osteogenic, coated on apatite ceramics or collagen sponge; sequence not in this part (WWFWGSAISTLYLDEYDKVVLKNYQ; also: cyclic, ring type not given here)
ALP activity (hMSCs [5]): increase | production of extracellular matrix proteins such as Osteopontin (OPN) (osteoblast progenitors): extensive amounts
